Read-outs that look alike come from different tables or passages of the source. Each block holds one compound with its values, some of them ahead of it.
Columns and labels:
[1] = target: T1, rat MCT1 (Rattus norvegicus, UniProt P53987); settings: cited from earlier work
T1 sequence (P53987 1-494): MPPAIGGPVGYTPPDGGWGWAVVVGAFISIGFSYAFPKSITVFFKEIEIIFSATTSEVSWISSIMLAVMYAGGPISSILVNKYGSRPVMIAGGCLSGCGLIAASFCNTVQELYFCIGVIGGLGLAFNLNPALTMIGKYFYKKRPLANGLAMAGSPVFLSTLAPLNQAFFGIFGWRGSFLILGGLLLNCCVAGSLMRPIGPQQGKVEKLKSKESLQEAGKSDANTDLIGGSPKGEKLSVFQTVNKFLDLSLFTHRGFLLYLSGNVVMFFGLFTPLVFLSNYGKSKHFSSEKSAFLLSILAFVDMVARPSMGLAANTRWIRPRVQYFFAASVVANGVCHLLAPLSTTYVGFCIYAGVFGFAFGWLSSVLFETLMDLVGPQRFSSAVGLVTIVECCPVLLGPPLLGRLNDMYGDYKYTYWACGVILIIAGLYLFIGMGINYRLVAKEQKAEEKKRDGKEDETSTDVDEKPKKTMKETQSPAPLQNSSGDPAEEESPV

[2] = test system: activated T-lymphocytes; assay: Intracellular lactate levels in activated T-lymphocytes (lactate oxidase); format: cell-based; settings: Homo sapiens, T-lymphocyte; Mean±s.e.mean (mean±range for n=2); read-out: pIA50 Intracellular Lactate (converted)
Description: (§1) PBMCs were prepared as described above by separation over Lymphoprep and T-lymphocytes were then enriched by purification on a nylon wool column. Briefly, 0.6 g nylon wool was inserted into a 10 ml syringe and this was autoclaved. […] The PBMC were resuspended in 1 ml of pre-warmed RPMI (20% HS) and were loaded onto the nylon wool column. The column was incubated for 45 min at 37° C. followed by elution of the T-cells by adding 10 ml RPMI (20% HS) (prewarmed to 37° C.) dropwise to the column. The T-cells obtained from the elution of the column were centrifuged (850 g for 5 min) and resuspended in RPMI containing L-glutamine and 5% human serum and stimulated with 0.5 ng/ml PMA and 500 ng/ml lonomycin for 48 h.
100 μl of each concentration were added to triplicate wells of a 24-well plate. T-cells were then added (1 ml per well) and were cultured for 4 h under standard cell culture conditions. The cells were then transferred from each well to microfuge tubes and were centrifuged at 360 g for 5 min at 4° C. The supernatant was discarded and the cell pellet was resuspended in 1 ml of ice-cold PBS, pH5.0. The cells were washed twice in PBS by centrifugation (360 g, 5 min, 4° C.) followed by resuspension of the cell pellet in 100 μl deionized water. The cells were incubated for 15 min at 4° C. to allow cell lysis to occur and the cell debris was removed by centrifugation at 15000 g for 10 min at 4° C. 10 μl of each supernatant sample were used for the lactate determination.
(§2) The assay was carried out in 96-well plates at room temperature. 10 μl of standard or sample were added to each well followed by 200 μl of the Lactate Reagent. […] The data were collected and analysed using SOFTmax PRO software (Molecular Devices).

[3] = test system: IgE production; assay: Inhibition of murine antibody production, IgE (ovalbumin immunised); format: in vivo, Balb/c mice; settings: 10 days following antigenic boost
Description: Balb/c mice were immunised with 0.5 mg/kg ovalbumin (OVA) and 200 mg/kg aluminium hydroxide gel in saline intraperitoneally and left for 29 days before being re-challenged intraperotoneally with 0.5 mg/kg ovalbumin in buffered saline vehicle and left for a further 10 days. Compound was dosed daily from re-challenge to termination prior to serum collection. Control groups were dosed with compound vehicle only. On completion of dosing, serum samples were taken from the mice and analysed for total and specific levels of IgE.
For total IgE, microtitre plates were coated with 5 ug/ml monoclonal rat anti-mouse IgE in phosphate buffered saline (PBS) and incubated overnight at 4° C. The plates were then washed four times with PBS containing 0.05% Tween 20 and then blocked with 1% BSA in PBS at room temperature for 2 hours. This was followed by two further plate washings.
The serum samples and IgE standards were added to the wells in duplicate and incubated overnight. The plates were then washed a further four times before adding 50 ul biotinylated monoclonal rat anti-mouse IgE appropriately diluted in 0.1% BSA in PBS for 2 hours. The plate was washed for a further four times before adding 50 ul streptavidin alkaline phosphatase conjugate appropriately diluted in 1% BSA in PBS at room temperature for 50 minutes. The plate was washed a further four times before enzyme substrate (paranitrophenyl phoshate in 1M diethanolamine buffer pH 9.8) at 1 mg/ml was added. Once the colour reaction developed, the plate was read at 405 nm. Levels of total IgE in serum samples were extrapolated from curve obtained with IgE standards.
For specific IgE, the methodology was similar except for the following. The microtitre plates were coated with 50 ug/ml rat anti-mouse IgE. The serum samples or normal control sera were added to the washed plates. Biotinylated OVA diluted in 0.1% BSA in PBS was used as enzyme marker.

[4] = test system: activated T-lymphocytes; assay: Extracellular lactate levels in activated T-lymphocytes (lactate oxidase); format: cell-based, human
Description: as §1
20 μl of each concentration were added to triplicate wells of a 96-well plate. T-cells were then added (200 μl per well, 2×10^5 cells) and were cultured for 4 h under standard cell culture conditions. The cell supernatants were collected from each well after the cells were pelleted by centrifugation of the plate at 850 g for 5 min at 4° C. 10 μl of each supernatant sample were used for the lactate determination.
as §2

[5] = test system: IgG2a production; assay: Inhibition of murine antibody production, IgG2a (ovalbumin in poly I:C); format: in vivo, Balb/c mice; settings: Mus musculus, sc, 168 h, subcutaneous, 7 days following antigenic boost
Description: To measure the effect of the compound on IgG2a production, Balb/c mice were immunised with ovalbumin in poly I:C adjuvant (polyinosinic:polycytidylic acid adjuvant) and left for 14 days before being re-challenged with ovalbumin in buffered saline vehicle and left for a further 7 days. Serum samples were taken from the mice and analysed for total and specific IgG2a. Compound was dosed daily from re-challenge to termination prior to serum collection. For total IgG2A, microtitre plates were coated with 5 ug/ml of goat anti-mouse IgG2a in PBS and incubated overnight at 4° C. The plates were then washed four times with PBS containing 0.05% Tween 20 and then blocked with 1% BSA at room temperature for 2 hours. This was followed by two further plate washings. The serum samples and IgG2a standards were added to the wells in duplicate and incubated at 4° C. overnight. The plates were then washed a further four times before adding 50 ul alkaline phosphatase conjugated goat anti-mouse IgG appropriately diluted in 0.1% BSA in PBS and left at room temperature for an hour. The plate was washed a further four times before enzyme substrate (p-nitrophenyl phosphate in 1M diethanolamine buffer pH 9.8) at 1 mg/ml was added. Once the colour reaction developed, the absorbance of the wells at 405 nm was read in a spectrophotometer. […]

[6] = target: T2, MCT1 (Homo sapiens, UniProt P53985, D490E); assay: Yeast expressed MCT1 filter binding assay (competition with 3H-ligand C); parameters: The invention is not restricted to the use of full-length native human MCTs; made in house; host or cells: Saccharomyces cerevisiae BY4742 (jen1 deletion), membrane preparation; plasmid pACES14-hMCT1; settings: yeast membrane MCT1 filter binding, 2.5 nM 3H-ligand C
T2 sequence (P53985 1-500 D490E): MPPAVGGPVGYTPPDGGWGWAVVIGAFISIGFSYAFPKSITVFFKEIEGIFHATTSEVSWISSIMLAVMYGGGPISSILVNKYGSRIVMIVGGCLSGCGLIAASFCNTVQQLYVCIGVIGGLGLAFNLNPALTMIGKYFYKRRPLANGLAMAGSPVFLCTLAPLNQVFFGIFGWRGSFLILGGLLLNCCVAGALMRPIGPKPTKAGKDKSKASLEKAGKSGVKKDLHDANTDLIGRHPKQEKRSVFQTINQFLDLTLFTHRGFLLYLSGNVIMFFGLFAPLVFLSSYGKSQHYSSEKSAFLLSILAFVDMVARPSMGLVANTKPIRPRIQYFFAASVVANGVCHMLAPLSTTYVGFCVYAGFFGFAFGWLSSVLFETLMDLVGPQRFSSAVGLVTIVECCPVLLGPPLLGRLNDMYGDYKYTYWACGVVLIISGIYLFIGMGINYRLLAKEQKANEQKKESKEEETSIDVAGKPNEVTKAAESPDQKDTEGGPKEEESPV
Description: Assay to Measure the Potency of Selected Compounds Using a Filter Binding Assay
Competition assays can be used to measure the affinity of unlabelled compound for MCT1. […] 180 μl of yeast membranes expressing MCT1 in assay buffer containing typically 0.5 to 1 μg total protein was added to start the reaction. […] The competition assay was incubated at 2 hours at room temperature with shaking. Experimental data points were usually carried out in triplicate. The membranes were harvested onto GF-B filter plates and washed with assay buffer without BSA, dried, scintillant added and counts detected using a tritium program on a Packard Top Count plate reader. The results were analysed by subtraction of the non-specific binding from each of the experimental points and then fitting a sigmoidal curve through a semi-log plot of the data in Microcal Origin.

[7] = target: T3, MCT1 with a streptavidin-binding sequence tag (Homo sapiens, UniProt P53985, D490E); assay: Yeast membrane MCT1-strep tagged SPA assay (125I ligand A); settings: 0.1 nM 125I ligand A
T3 construct: The invention is not restricted to the use of full-length native human MCTs; made in house; host or cells: Saccharomyces cerevisiae BY4742 (jen1 deletion), membrane preparation; plasmid pACES14-MCT1-strep tag
T3 sequence (P53985 1-500 D490E): T2 sequence (P53985 1-500 D490E)
Description: Yeast membranes expressing MCT1 with a streptavidin-binding sequence tag were then added to give a final concentration of 37 μg/ml protein and gently rolled for >30 minutes at room temperature. The beads/membranes were then washed by centrifugation at ˜650 g for 10 minutes and resuspended in assay buffer+0.05% BSA. The washing was repeated once before resuspended in the appropriate volume of assay buffer+0.05% BSA.
Finally, 80 μl of the membrane/bead suspension was added to each well. […] The raw counts were analysed by averaging replicates, subtraction of non-specific binding and the subsequent calculation of % inhibition of binding of the iodinated ligand.

[8] = test system: peripheral blood mononuclear cells (PBMC); assay: T-lymphocyte proliferation, PMA/ionomycin stimulated PBMC, 3 days; settings: Homo sapiens, 72 h, read-out: pIA50 Proliferation (3 days) (converted)
Description: The cell signalling pathways triggered by T-cell activation through the T cell receptor and CD28 can be mimicked in vitro using a phorbol ester, phorbol 12-myristate 13-acetate (PMA), which activates protein kinase C, and ionomycin, which induces calcium release from internal cellular stores. PMA and ionomycin-stimulated proliferation of peripheral blood mononuclear cells (PBMC), of which the predominant cell type is T-lymphocytes, provides a suitable assay for measuring the ability of small molecules to block T-cell proliferation.
Blood was centrifuged at 850 g for 10 minutes and the plasma was removed. […] The blood/Lymphoprep layers were centrifuged at 850 g for 20 minutes at 18° C. (with no brake).
10 μl of compound in solution was then added to the 96-well flat bottom assay plate (final volume of 200 μl). […] Both were diluted to 4× the final assay concentration in complete medium. 50 μl of each reagent was dispensed per well to give a final assay concentration of 0.5 ng/ml PMA and 500 ng/ml ionomycin. Control wells received 100 μl cells with PMA only (negative control 1), with ionomycin only (negative control 2) and 100 μl cells with 50 μl PMA and 50 μl ionomycin with no test compound (positive control). 100 μl complete medium was added to the negative controls. […]

[9] = test system: activated T-lymphocytes; assay: DNA synthesis ([3H]-thymidine incorporation) in activated T-lymphocytes; format: cell-based; settings: Homo sapiens, T-lymphocyte; Mean±s.e.mean (mean±range for n=2); read-out: pIA50 DNA (converted)
Description: as §1
DNA synthesis was assessed by measuring the incorporation of [^3H]-thymidine. The assay was carried out in a 96-well plate. 20 μl of test compounds at 10× the final concentration were added to the plate followed by 200 μl of T-cells per well (2×10^5 cells). The cells were cultured for 4 h under standard cell culture conditions and cultures were pulsed with ^3H-thymidine (0.5 μCi/well; Amersham) for the final hour of the incubation.

Structure (SMILES): N#CC(=Cc1ccc(O)cc1)C(=O)O [CHC, α-cyano-4-hydroxycinnamate]
IC50 [1]: 27 µM

Structure (SMILES): O=S(=O)(O)c1cc(N=C=S)ccc1C=Cc1ccc(N=C=S)cc1S(=O)(=O)O [DIDS, 4,4′-di-isothiocyanatostilbene-2,2′-disulphonate]
IC50 [1]: 50 µM

Structure (SMILES): CC(C)Cn1c(=O)n(C)c(=O)c2c(SCCCO)c(Cc3cccc4ccccc34)sc21 [Ligand 1, 5-[(3-hydroxypropyl)thio]-3-methyl-1-(2-methylpropyl)-6-(1-napthalenylmethyl)thieno[2,3-d]pyrimidine-2,4(1H,3H)-dione]
EC50 [2]: 0.407 nM | inhibition of OVA specific IgE ([3]; 3 mg/kg subcutaneous): 64% | inhibition of total IgE ([3]; 3 mg/kg subcutaneous): 67% | inhibition of OVA specific IgE ([3]; 30 mg/kg subcutaneous): 53% | inhibition of total IgE ([3]; 30 mg/kg subcutaneous): 84% | maximum level of inhibition, extracellular lactate [4]: 30±1.9% | ED50 ([5]; read-out: ED50, specific IgG2a production): 10 mg/kg | ED50 ([5]; read-out: ED50, total IgG2a production): 30 mg/kg

IC50 [6]: 105 nM | IC50 [7]: 15.4 nM
Structure (SMILES): CC(C)Cn1c(=O)n(C)c(=O)c2cc(Cc3ccnc4ccccc34)sc21 [Ligand 3, 6-(4-quinolinylmethyl)--3-methyl-1-(2-methylpropyl)-thieno[2,3-d]pyrimidin-2,4(1H,3H)-dione]

IC50 [6]: 787 nM | IC50 [7]: 32.2 nM
Structure (SMILES): CC(C)Cn1c(=O)n(C)c(=O)c2cc(Cc3nc4ccccc4s3)sc21 [Ligand 4, 6-([benzothiazol-2-yl]methyl)-3-methyl-1-(2-methylpropyl)thieno[2,3-d]pyrimidine-2,4(1H,3H)-dione]

EC50 [2]: 2.29 nM | IC50 ([4]; Homo sapiens, T-lymphocyte, Mean±s.e.mean (mean±range for n=2), read-out: pIA50 Extracellular Lactate (converted)): 3.8 nM | IC50 [9]: 2.69 nM
Structure (SMILES): CON(C)C(=O)c1c(Cn2c(C)nc(Cl)c2Cl)sc2c1c(=O)n(C)c(=O)n2CC(C)C [Ligand 5, 6-[(4,5-Dichloro-2-methyl-1H-imidazol-1-yl)methyl]-1,2,3,4-tetrahydro-N-methoxy-N,3-dimethyl-1-(2-methylpropyl)-2,4-dioxo-thieno[2,3-d]pyrimidine-5-carboxamide]
IC50 [8]: 1.66 nM

Structure (SMILES): O=C(CCc1ccc(O)cc1)c1c(O)cc(O)cc1O [phloretin]
IC50 [1]: 1 µM

From patent US20040072746A1, “Inhibitors of monocarboxylate transport” (priority 2001, published 2004)
